# In US20210355107A1, “MULTI-SUBSTITUTED PYRIDONE DERIVATIVES AND MEDICAL USE THEREOF” (Beijing Yuezhikangtai Biomedicines Co., Ltd., priority 2018, published 2021):
# How the values were obtained:
# [1] = target: T1, kinase Axl (Homo sapiens, UniProt P30530); assay: Mobility shift assay, inhibitory activity against kinase Axl; assay type: biochemical; conditions: ATP at Km (81 μM), average of two independent experiments
# T1 construct: purchased Carna 08-107
# T1 sequence (P30530 473-894 limits assumed): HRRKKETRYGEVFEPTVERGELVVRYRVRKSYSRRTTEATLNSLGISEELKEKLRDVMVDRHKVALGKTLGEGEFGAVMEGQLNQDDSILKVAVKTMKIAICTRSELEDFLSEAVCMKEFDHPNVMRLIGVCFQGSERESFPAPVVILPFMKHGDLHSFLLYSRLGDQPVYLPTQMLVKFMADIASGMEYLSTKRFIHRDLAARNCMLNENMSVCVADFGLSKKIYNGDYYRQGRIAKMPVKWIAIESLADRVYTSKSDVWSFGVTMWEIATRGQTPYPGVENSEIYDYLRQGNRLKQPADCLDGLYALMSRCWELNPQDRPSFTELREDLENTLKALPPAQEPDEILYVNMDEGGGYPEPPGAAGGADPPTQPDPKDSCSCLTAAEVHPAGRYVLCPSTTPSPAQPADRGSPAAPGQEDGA
# [2] = target: T2, Ba/F3 Axl cells (Homo sapiens, UniProt P30530); assay: Ba/F3 Axl cell proliferation, CellTiter-Glo Luminescent Cell Viability Assay; assay type: cell-based; conditions: 100 ng/mL rhGas6, 72 h incubation, read-out: IC50 (nM) against Ba/F3 Axl cells
# T2 sequence (P30530 1-894): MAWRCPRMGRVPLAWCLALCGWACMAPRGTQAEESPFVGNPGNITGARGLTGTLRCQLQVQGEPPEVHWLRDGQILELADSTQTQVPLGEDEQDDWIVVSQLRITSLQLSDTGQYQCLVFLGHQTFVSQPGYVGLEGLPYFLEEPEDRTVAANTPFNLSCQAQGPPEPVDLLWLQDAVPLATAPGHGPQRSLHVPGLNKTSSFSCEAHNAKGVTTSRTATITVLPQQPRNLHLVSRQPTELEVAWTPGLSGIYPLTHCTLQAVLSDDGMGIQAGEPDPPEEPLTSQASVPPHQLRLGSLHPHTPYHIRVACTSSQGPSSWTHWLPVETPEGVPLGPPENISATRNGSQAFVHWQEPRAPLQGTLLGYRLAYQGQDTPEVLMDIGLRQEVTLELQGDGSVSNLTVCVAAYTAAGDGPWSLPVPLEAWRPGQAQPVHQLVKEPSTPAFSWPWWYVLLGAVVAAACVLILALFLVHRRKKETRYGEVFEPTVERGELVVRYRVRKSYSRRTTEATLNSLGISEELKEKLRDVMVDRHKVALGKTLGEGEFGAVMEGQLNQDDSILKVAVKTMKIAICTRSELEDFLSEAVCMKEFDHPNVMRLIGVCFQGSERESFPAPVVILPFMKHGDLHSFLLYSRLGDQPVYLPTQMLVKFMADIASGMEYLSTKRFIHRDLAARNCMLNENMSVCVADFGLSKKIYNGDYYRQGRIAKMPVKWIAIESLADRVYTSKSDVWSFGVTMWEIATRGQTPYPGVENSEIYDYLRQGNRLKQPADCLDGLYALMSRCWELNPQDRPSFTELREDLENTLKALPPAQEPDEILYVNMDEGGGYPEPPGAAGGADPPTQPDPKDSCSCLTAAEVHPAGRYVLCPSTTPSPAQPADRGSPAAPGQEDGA
# Procedure: Test method: the inhibitory activity of the compounds against Ba/F3 Axl cell proliferation was evaluated using CellTiter-Glo® Luminescent Cell Viability Assay Kit (Promega).
# Test procedures: when thawing Ba/F3 Axl cells, the cell cryopreservation tube was shaken rapidly in a water bath at 37° C. to thaw the cells in 1 min. The cell suspension after thawing was mixed with RPMI1640 culture medium containing 10% FBS and centrifuged for 5 min at 1000 rpm, and the supernatant was discarded. The cell pellet was suspended in 5 mL of complete culture medium. […] Cell passage was performed at a cell density of 2×10^6 viable cells/mL. When the cells were passaged, the original cell suspension was directly made uniform by pipetting. 1/10 (namely 0.5 mL) of the cell suspension was kept, added with 4.5 mL of new complete culture medium and then made uniform by pipetting. The cell culture flask was then placed in a cell incubator for further culturing. Cell plating was performed when the cell confluence reached 2×10^6 viable cells/mL again. With reference to the method for cell passage, 1/10 (namely 0.5 mL) of the cell suspension was kept for further culturing when the cells were plated, and the remaining cell suspension was placed in a 15 mL centrifuge tube. The supernatant was discarded after centrifugation, and 5 mL of complete culture medium was used to resuspend the cells. […] A control group that contains no cell or compound but only complete culture medium and a control group that contains no compound but cells were set. The cell plates were incubated overnight in a cell incubator. […] The cell plates were then incubated in the cell incubator for 72 h. […] The cell plate was left to stand at room temperature for 20 min to stabilize luminescence signals, and the luminescence value of each well was scanned by a Spectramax M3 multi-functional microplate reader (Molecular Devices) at full wavelength.
# Test samples: example compounds of the present invention and bemcentinib (positive control compound).
# Data analysis: cell viability was calculated for compounds at various concentrations using the following formula:
# Cell viability(%)=(Lumtest compound−Lumculture solution control)/(Lumcell control−Lumculture solution control)×100%,
# where Lum refers to the luminescence value of each well of the test compound plate read by the multi-functional microplate reader.
# The data were analyzed using GraphPad Prism 7.0 software, fitted with nonlinear S-curve regression to give dose-response curves, and IC50 values were calculated therefrom.
IC50 [1],SMILES,GI50 [2]
0.46 nM,"CC(C)n1cc(C(=O)Nc2ccc(-c3cc(-c4cnn(C5CCNCC5)c4)cnc3N)c(F)c2)c(=O)c(-c2ccc(F)cc2)c1C#N [Example 2, N-(4-(2-amino-5-(1-(piperidin-4-yl)-1H-pyrazol-4-yl)pyridin-3-yl)-3-fluorophenyl)-6-cyano-5-(4-fluorophenyl)-1-isopropyl-4-oxo-1,4-dihydropyridine-3-carboxamide]",
2.7 nM,"CCn1cc(-c2cnc(N)c(-c3ccc(NC(=O)c4cn(C(C)C)c(C#N)c(-c5ccc(F)cc5)c4=O)cc3F)c2)cn1 [Example 3, N-(4-(2-amino-5-(1-ethyl-1H-pyrazol-4-yl)pyridin-3-yl)-3-fluoro-phenyl)-6-cyano-5-(4-fluorophenyl)-1-isopropyl-4-oxo-1,4-dihydropyridine-3-carboxamide]",0.29 nM
0.28 nM,"CC(C)n1cc(C(=O)Nc2ccc(-c3cc(-c4cnn(C)c4)cnc3N)c(F)c2)c(=O)c(-c2ccc(F)cc2)c1C#N [Example 4, N-(4-(2-amino-5-(1-methyl-1H-pyrazol-4-yl)pyridin-3-yl)-3-fluorophenyl)-6-cyano-5-(4-fluorophenyl)-1-isopropyl-4-oxo-1,4-dihydropyridine-3-carboxamide]",0.57 nM
2 nM,"CC(C)n1cc(C(=O)Nc2cc(F)c(-c3cc(-c4cnn(C)c4)cnc3N)cc2F)c(=O)c(-c2ccc(F)cc2)c1C#N [Example 6, N-(4-(2-amino-5-(1-methyl-1H-pyrazol-4-yl)pyridin-3-yl)-2,5-difluorophenyl)-6-cyano-5-(4-fluorophenyl)-1-isopropyl-4-oxo-1,4-dihydropyridine-3-carboxamide]",0.49 nM
2.8 nM,"CCn1cc(-c2cnc(N)c(-c3ccc(NC(=O)c4cn(C5CC5)c(C#N)c(-c5ccc(F)cc5)c4=O)cc3F)c2)cn1 [Example 10, N-(4-(2-amino-5-(1-ethyl-1H-pyrazol-4-yl)pyridin-3-yl)-3-fluorophenyl)-6-cyano-5-(4-fluorophenyl)-1-cyclopropyl-4-oxo-1,4-dihydropyridine-3-carboxamide]",
3.2 nM,"COc1cc2nccc(Oc3ccc(NC(=O)c4cn(C)c(C#N)c(-c5ccc(F)cc5)c4=O)cc3F)c2cc1OC [Example 21, 6-cyano-N-(4-((6,7-dimethoxyquinolin-4-yl)oxy)-3-fluoro-phenyl)-5-(4-fluorophenyl)-1-methyl-4-oxo-1,4-dihydropyridine-3-carboxamide]",0.29 nM
,"COc1cc2nccc(Oc3ccc(NC(=O)c4cn(C(C)C)c(C#N)c(-c5ccc(F)cc5)c4=O)cc3F)c2cc1OC [Example 24, 6-cyano-N-(4-((6,7-dimethoxyquinolin-4-yl)oxy)-3-fluoro-phenyl)-5-(4-fluorophenyl)-1-isopropyl-4-oxo-1,4-dihydropyridine-3-carboxamide]",0.36 nM
,"CCn1cc(-c2cnc(N)c(-c3cc(F)c(NC(=O)c4cn(C(C)C)c(C#N)c(-c5ccc(F)cc5)c4=O)cc3F)c2)cn1 [Example 33, N-(4-(2-amino-5-(1-ethyl-1H-pyrazol-4-yl)pyridin-3-yl)-2,5-difluorophenyl)-6-cyano-5-(4-fluorophenyl)-1-isopropyl-4-oxo-1,4-dihydropyridine-3-carboxamide]",0.23 nM
,"[2H]C([2H])([2H])n1cc(-c2cnc(N)c(-c3cc(F)c(NC(=O)c4cn(C(C)C)c(C#N)c(-c5ccc(F)cc5)c4=O)cc3F)c2)cn1 [Example 34, N-(4-(2-amino-5-(1-methyl-d3-1H-pyrazol-4-yl)pyridin-3-yl)-2,5-difluorophenyl)-6-cyano-5-(4-fluorophenyl)-1-isopropyl-4-oxo-1,4-dihydropyridine-3-carboxamide]",0.28 nM
